Test results published in patent US9000162B2, “5,8-difluoro-4-(2-(4-(heteroaryloxy)-phenyl)ethylamino)quinazolines and their use as agrochemicals” (Dow AgroSciences LLC, priority 2008, dated 2015).

Tests used:
Assay type in all cases: in vivo
[1] = test system: Magnaporthe grisea = Pyricularia oryzae (PYRIOR); test: whole plant or invertebrate; settings: foliar, read-out: Activity against fungal diseases PYRIOR
[2] = test system: Pseudoperonospora cubensis (PSPECU); test: Cucumber downy mildew foliar protectant test; settings: 200 ppm foliar, inoculated one day after treatment, read-out: Activity against fungal diseases PSPECU
Procedure: The plants were inoculated with the fungus one day after treatment. ***=80-100% control; **=50-79% control; *=0-49% control. It will be understood by those in the art that the efficacy of the compounds against the foregoing fungi establishes the general utility of the compounds as fungicides. The activity of the compounds as effective fungicides was determined by applying the compounds to plants and observing control of fungal disease. […] All plants were inoculated with spores of the fungus the day after treatment, then incubated in an environment conducive to disease development. Disease severity was evaluated 4 to 25 days later, depending on the speed of disease development. The following experiments were performed in the laboratory to determine the fungicidal efficacy of the compounds of the invention. Cucumber Downy Mildew (Causal Agent Pseudoperonospora cubensis; Bayer Code […]): Cucumber plants (variety “Bush Champion' or 'Bush Pickle Hybrid') were grown from seed in a soil-less peat-based potting mixture (Metromix) until the first true leaf was 20-80% expanded. Each pot contained 1 seedling. These plants were sprayed until wet with the formulated test compound. On the following day, the leaves were inoculated with an aqueous suspension of downy mildew sporangia and the plants were kept in high humidity for one day to permit sporangia to germinate and infect the leaf. The plants were then incubated in a growth chamber until disease developed on untreated control plants. Table 1 presents the activity of typical compounds of the present invention when evaluated in these experiments. The effectiveness of the test compounds at controlling disease when sprayed on leaves was determined by assessing the severity of disease on treated plants, then converting the severity to percent control based on the level of disease on untreated, inoculated plants.

[3] = test system: Puccinia recondita tritici (PUCCRT); test: Leaf rust of wheat foliar protectant test; settings: 200 ppm foliar, inoculated one day after treatment, read-out: Activity against fungal diseases PUCCRT
Procedure: (§1) The plants were inoculated with the fungus one day after treatment. ***=80-100% control; **=50-79% control; *=0-49% control. It will be understood by those in the art that the efficacy of the compounds against the foregoing fungi establishes the general utility of the compounds as fungicides. The activity of the compounds as effective fungicides was determined by applying the compounds to plants and observing control of fungal disease. […] All plants were inoculated with spores of the fungus the day after treatment, then incubated in an environment conducive to disease development. Disease severity was evaluated 4 to 25 days later, depending on the speed of disease development. The following experiments were performed in the laboratory to determine the fungicidal efficacy of the compounds of the invention. […] Each pot contained 3-8 seedlings. These plants were sprayed until wet with the formulated test compounds. On the following day, the leaves were inoculated with an aqueous spore suspension of Puccinia recondita tritici and the plants were kept in high humidity overnight to permit spores to germinate and infect the leaf. The plants were then transferred to a greenhouse until disease developed on untreated control plants. Table 1 presents the activity of typical compounds of the present invention when evaluated in these experiments. The effectiveness of the test compounds at controlling disease when sprayed on leaves was determined by assessing the severity of disease on treated plants, then converting the severity to percent control based on the level of disease on untreated, inoculated plants.

[4] = test system: Septoria tritici (SEPTTR); test: Septoria blotch of wheat foliar protectant test; settings: Zymoseptoria tritici, read-out: Activity against fungal diseases SEPTTR; for pest or weed control at 200 ppm: 200 ppm foliar, inoculated one day after treatment; for pest or weed control at 25 ppm: foliar, Tested at 25 ppm (footnote b)
Procedure: as §1, with “3-10” for “3-8”, “compound.” for “compounds.”, “Septoria” for “Puccinia recondita”, “(one day in a dark dew chamber followed by three days in a lighted dew chamber)” for “overnight”

SMILES | pest or weed control at 200 ppm [1] | pest or weed control at 200 ppm [2] | pest or weed control at 200 ppm [3] | pest or weed control at 200 ppm [4] | pest or weed control at 25 ppm [4] | pest or weed control at 3 ppm [1]
Fc1ccc(F)c2c(NCCc3ccccc3)ncnc12 [Compound 94] | 0 to 49% | 80 to 100% | 80 to 100% | 50 to 79% | – | –
COc1cc(C(C)(F)F)cc(Oc2ccc(CCNc3ncnc4c(F)ccc(F)c34)cc2)n1 [Compound 11] | 50 to 79% | 80 to 100% | 80 to 100% | 80 to 100% | – | –
N#Cc1c(Cl)cncc1Oc1ccc(CCNc2ncnc3c(F)ccc(F)c23)cc1 [Compound 129] | 80 to 100% | 80 to 100% | 80 to 100% | 50 to 79% | – | –
Cc1cc(Oc2cc(C(F)(F)F)ncn2)ccc1CCNc1ncnc2c(F)ccc(F)c12 [Compound 118] | 80 to 100% | 80 to 100% | 80 to 100% | – | 80 to 100% | –
CCOc1cc(CCNc2ncnc3c(F)ccc(F)c23)ccc1Oc1cc(C(F)(F)F)ccn1 [Compound 60] | 80 to 100% | 80 to 100% | 80 to 100% | 80 to 100% | – | –
Fc1ccc(F)c2c(NCCc3ccc(Oc4c(Cl)cnc(C(F)(F)F)c4Cl)cc3)ncnc12 [Compound 95] | 80 to 100% | 80 to 100% | 80 to 100% | 80 to 100% | – | –
Fc1ccc(F)c2c(NCCc3ccc(Oc4ccnc(Cl)c4)cc3)ncnc12 [Compound 107] | 80 to 100% | 80 to 100% | 80 to 100% | – | 80 to 100% | –
CC(C)Oc1cc(CCNc2ncnc3c(F)ccc(F)c23)ccc1Oc1cc(C(F)(F)F)ccn1 [Compound 58] | 80 to 100% | 80 to 100% | 80 to 100% | 80 to 100% | – | –
COc1ccc(CCNc2ncnc3c(F)ccc(F)c23)cc1C [Compound 21] | 50 to 79% | 80 to 100% | 50 to 79% | – | 0 to 49% | –
N#Cc1ccnc(Oc2ccc(CCNc3ncnc4c(F)ccc(F)c34)cc2)c1 [Compound 2] | 80 to 100% | 80 to 100% | 80 to 100% | 0 to 49% | – | –
Fc1ccc(F)c2c(NCCc3ccc(Oc4ccncc4C(F)(F)F)cc3)ncnc12 [Compound 83] | 80 to 100% | 80 to 100% | 80 to 100% | 80 to 100% | – | –
Fc1ccc(F)c2c(NCCc3cccc(Oc4cc(C(F)(F)F)ccn4)c3)ncnc12 [Compound 40] | 80 to 100% | 80 to 100% | 80 to 100% | – | 50 to 79% | –
Cc1c(CCNc2ncnc3c(F)ccc(F)c23)ccc(Oc2cc(C(F)(F)F)ccn2)c1C [Compound 26] | 50 to 79% | 80 to 100% | 80 to 100% | 80 to 100% | – | –
Cc1cc(CCNc2ncnc3c(F)ccc(F)c23)c(C)cc1O [Compound 18] | 0 to 49% | 0 to 49% | 50 to 79% | 0 to 49% | – | –
Cc1cc(CCNc2ncnc3c(F)ccc(F)c23)ccc1Oc1c(Cl)cnc(C(F)(F)F)c1Cl [Compound 79] | 80 to 100% | 50 to 79% | 80 to 100% | 80 to 100% | – | –
COc1cc(CCNc2ncnc3c(F)ccc(F)c23)ccc1Oc1ccnc(C(F)(F)F)n1 [Compound 113] | 80 to 100% | 80 to 100% | 80 to 100% | – | 80 to 100% | –
Fc1ccc(F)c2c(NC3Cc4ccc(Oc5ccc(C(F)(F)F)cn5)cc4C3)ncnc12 (centres unmarked) [Compound 111] | 80 to 100% | 80 to 100% | 80 to 100% | 80 to 100% | – | –
Fc1ccc(F)c2c(NCCc3ccc(Oc4cnccc4C(F)(F)F)cc3)ncnc12 [Compound 43] | 50 to 79% | 80 to 100% | 80 to 100% | 80 to 100% | – | –
Fc1cc(C(F)(F)F)cnc1Oc1ccc(CCNc2ncnc3c(F)ccc(F)c23)cc1 [Compound 5] | 80 to 100% | 80 to 100% | 80 to 100% | – | 80 to 100% | –
Cc1cc(CCNc2ncnc3c(F)cc(F)c(F)c23)ccc1Oc1cc(C(F)(F)F)ccn1 [Compound 80] | 80 to 100% | 80 to 100% | 80 to 100% | 80 to 100% | – | –
COc1ccc(CCNc2ncnc3c(F)cc(F)c(F)c23)cc1Cl [Compound 86] | 0 to 49% | 80 to 100% | 0 to 49% | 0 to 49% | – | –
COc1cc(CCNc2ncnc3c(F)ccc(F)c23)ccc1Oc1c(Cl)cnc(C(Cl)(Cl)Cl)c1Cl [Compound 89] | 50 to 79% | 50 to 79% | 80 to 100% | 50 to 79% | – | –
Cc1cc(CCNc2ncnc3c(F)ccc(F)c23)ccc1Oc1ccncc1C(F)(F)F [Compound 37] | – | 80 to 100% | 80 to 100% | – | 50 to 79% | 80 to 100%
Cc1cc(O)ccc1CCNc1ncnc2c(F)ccc(F)c12 [Compound 51] | 50 to 79% | 0 to 49% | 0 to 49% | 0 to 49% | – | –
COc1ccc(CCNc2ncnc3c(F)cc(F)c(F)c23)cc1C [Compound 68] | 80 to 100% | 50 to 79% | 0 to 49% | 0 to 49% | – | –
C=Cc1cc(CCNc2ncnc3c(F)ccc(F)c23)ccc1Oc1cc(C(F)(F)F)ccn1 [Compound 65] | 80 to 100% | 80 to 100% | 80 to 100% | 80 to 100% | – | –
COc1ccc(CCNc2ncnc3c(F)ccc(F)c23)cc1Cl [Compound 85] | 50 to 79% | 80 to 100% | 0 to 49% | 0 to 49% | – | –
Fc1ccc(F)c2c(NCCc3ccc(Oc4cc(Cl)ncn4)cc3)ncnc12 [Compound 127] | 80 to 100% | 80 to 100% | 80 to 100% | 0 to 49% | – | –
Fc1cc(CCNc2ncnc3c(F)ccc(F)c23)ccc1Oc1ccc(C(F)(F)F)cn1 [Compound 130] | 80 to 100% | 80 to 100% | 80 to 100% | 80 to 100% | – | –
